The values below come from DBAASP.

Values after ≈ are worked out from the molar mass of the structure shown.

Common to all, as to assay: ≥ marks a high value that may be exact or a test limit, other limits are often not marked, values filed in µg/mL are converted to µM
The subject of assay [1] is Escherichia coli ATCC 25922.
For assay [2], the system named is Pseudomonas aeruginosa ATCC 27853.
Assay [3] concerns Staphylococcus aureus ATCC 25923.

For the compound `CC[C@H](C)[C@H](NC(=O)[C@H](Cc1c[nH]c2ccccc12)NC(=O)[C@H](CCCCN)NC(=O)[C@H](Cc1c[nH]c2ccccc12)NC(=O)[C@H](Cc1c[nH]c2ccccc12)NC(=O)[C@H](CCCCN)NC(=O)[C@H](CCCCN)NC(=O)[C@H](Cc1c[nH]c2ccccc12)NC(=O)[C@@H](N)CCCCN)C(N)=O` [KWKKWWKWI], the MIC in assay [1] was 5.76 µM (≈ 7.99 µg/mL). This counts as single-digit micromolar.

As to `CC(C)C[C@H](NC(=O)[C@H](CCCN=C(N)N)NC(=O)[C@@H](N)CCCCN)C(=O)N[C@@H](CCCN=C(N)N)C(=O)N[C@@H](CCCN=C(N)N)C(=O)N[C@H](C(=O)N[C@@H](Cc1c[nH]c2ccccc12)C(=O)N[C@@H](CCCN=C(N)N)C(=O)N[C@@H](CCCN=C(N)N)C(=O)N[C@@H](Cc1c[nH]c2ccccc12)C(=O)N[C@@H](CCCN=C(N)N)C(N)=O)C(C)C` [KRLRRVWRRWR], the figures for the MIC in assay [2], in assay [1] and in assay [3] were 20 µM (≈ 33.3 µg/mL), 30 µM (≈ 50 µg/mL) and 5 µM (≈ 8.34 µg/mL), respectively.

`CSCC[C@H](NC(=O)[C@H](Cc1cnc[nH]1)NC(=O)[C@H](C)NC(=O)[C@H](CCSC)NC(=O)[C@@H](NC(=O)[C@H](CCCCN)NC(=O)[C@@H]1CCCN1C(=O)[C@H](CC(C)C)NC(=O)[C@@H](N)C(C)C)C(C)C)C(=O)N[C@@H](CCCCN)C(=O)O` [VLPKVMAHMK] registered an MIC in assay [2] of 32 µM (≈ 36.9 µg/mL).

`CC[C@H](C)[C@H](NC(=O)CNC(=O)[C@H](CC(N)=O)NC(=O)[C@@H](NC(=O)[C@@H](NC(=O)CNC(=O)[C@@H](NC(=O)[C@H](CCCCN)NC(=O)[C@@H](NC(=O)CNC(=O)[C@H](CCCCN)NC(=O)CNC(=O)[C@@H](NC(=O)[C@@H](NC(=O)[C@H](CCCCN)NC(=O)[C@@H]1CCCN1C(=O)[C@H](Cc1ccccc1)NC(=O)[C@@H](NC(=O)CN)[C@@H](C)CC)[C@@H](C)CC)[C@@H](C)CC)[C@@H](C)CC)[C@@H](C)O)[C@@H](C)CC)C(C)C)C(=O)N[C@@H](CCCCN)C(=O)N[C@@H](CO)C(=O)N[C@@H](CC(C)C)C(=O)N[C@H](C(=O)N[C@@H](CCCCN)C(=O)NCC(=O)N[C@H](C(=O)NCC(=O)N[C@@H](CCSC)C(=O)N[C@@H](CCCCN)C(=O)N[C@H](C(=O)N[C@@H](Cc1ccccc1)C(=O)N[C@@H](CCCCN)C(=O)N[C@@H](C)C(=O)NCC(=O)N[C@@H](CC(C)C)C(=O)N[C@@H](CC(N)=O)C(=O)N[C@@H](CC(N)=O)C(=O)N[C@H](C(=O)NCC(=O)N[C@@H](CC(N)=O)C(=O)N[C@H](C(=O)NCC(=O)N[C@H]1CSSC[C@@H](C(=O)O)NC(=O)[C@H](CCC(=O)O)NC(=O)[C@H](CC(=O)O)NC(=O)[C@H](CCC(=O)O)NC(=O)[C@H](CC(N)=O)NC1=O)[C@@H](C)O)[C@@H](C)CC)C(C)C)C(C)C)C(C)C` [GIFPKIIGKGIKTGIVNGIKSLVKGVGMKVFKAGLNNIGNTGCNEDEC] displayed a minimal inhibitory concentration (MIC) in assay [1] of 1 µM (≈ 4.93 µg/mL).

Take `CC(C)[C@H](NC(=O)[C@H](Cc1ccc(O)cc1)NC(=O)[C@H](CO)NC(=O)[C@H](CCCCN)NC(=O)[C@@H](N)Cc1c[nH]c2ccccc12)C(=O)N[C@@H](CCCN=C(N)N)C(=O)N[C@@H](CCCN=C(N)N)C(=O)N[C@@H](Cc1c[nH]c2ccccc12)C(=O)N[C@@H](CCCN=C(N)N)C(=O)N[C@@H](CO)C(=O)N[C@@H](CCCN=C(N)N)C(=O)N[C@@H](Cc1ccc(O)cc1)C(N)=O` [WKSYVRRWRSRY]: the MIC worked out at 100 µM (≈ 174 µg/mL) in assay [2], 16 µM (≈ 27.9 µg/mL) in assay [1] and 32 µM (≈ 55.7 µg/mL) in assay [3].

Take `CC(C)C[C@H](NC(=O)[C@H](C)NC(=O)[C@@H](N)CO)C(=O)N[C@H](C(=O)NCC(=O)N[C@H]1CSSC[C@@H](C(=O)N[C@@H](Cc2ccccc2)C(=O)NCC(=O)N[C@@H](CCCN=C(N)N)C(=O)O)NC(=O)[C@@H]2CCCN2C(=O)[C@H](CCCCN)NC(=O)[C@@H]2CCCN2C(=O)[C@@H]2CCCN2C(=O)[C@H](Cc2ccc(O)cc2)NC(=O)[C@H](CO)NC(=O)[C@H](CCCCN)NC(=O)[C@H]([C@@H](C)O)NC(=O)[C@H](Cc2c[nH]c3ccccc23)NC1=O)C(C)C` [SALVGCWTKSYPPKPCFGR]: the MIC in assay [3] came out at 6 µM (≈ 12.6 µg/mL).

Turning to `CSCC[C@H](NC(=O)[C@H](CCCN=C(N)N)NC(=O)[C@@H](N)Cc1ccc(O)cc1)C(=O)N[C@@H](Cc1c[nH]c2ccccc12)C(=O)N[C@@H](CCCN=C(N)N)C(=O)N[C@@H](Cc1c[nH]c2ccccc12)C(=O)N[C@@H](CCCN=C(N)N)C(=O)N[C@@H](Cc1c[nH]c2ccccc12)C(=O)N[C@@H](CCCN=C(N)N)C(=O)N[C@@H](Cc1c[nH]c2ccccc12)C(=O)N[C@@H](CCCN=C(N)N)C(N)=O` [YRMWRWRWRWR], the minimum inhibitory concentration (MIC) in assay [2] is 10.9 µM (≈ 20 µg/mL); in assay [1], 4.08 µM (≈ 7.5 µg/mL); in assay [3] it was 2.72 µM (≈ 5 µg/mL).

In the case of `CC(C)[C@H](NC(=O)[C@H](Cc1ccc(O)cc1)NC(=O)[C@H](CO)NC(=O)[C@H](CCCCN)NC(=O)[C@@H](N)Cc1c[nH]c2ccccc12)C(=O)N[C@@H](CCCN=C(N)N)C(=O)N[C@@H](CCCN=C(N)N)C(=O)N[C@@H](Cc1c[nH]c2ccccc12)C(=O)N[C@@H](CCCN=C(N)N)C(=O)N[C@@H](CO)C(N)=O` [WKSYVRRWRS], the figures for the MIC in assay [2], in assay [1] and in assay [3] were greater than 100 µM, 64 µM (≈ 91.1 µg/mL) and greater than 100 µM, respectively.

For the compound `CC(C)C[C@H](NC(=O)[C@H](C)NC(=O)[C@H](CCCCN)NC(=O)[C@H](C)NC(=O)[C@H](CC(C)C)NC(=O)[C@H](CC(=O)O)NC(=O)[C@@H](N)CCC(=O)O)C(=O)N[C@@H](C)C(=O)N[C@@H](CCCCN)C(=O)N[C@@H](CCCCN)C(=O)O` [EDLAKALAKK], the minimal inhibitory concentration (MIC) stood at 4600 µM (≈ 5000 µg/mL) in assay [1] and 2300 µM (≈ 2500 µg/mL) in assay [3].

As for `CC[C@H](C)[C@H](NC(=O)CNC(=O)[C@@H](N)CO)C(=O)N[C@@H](CCC(N)=O)C(=O)N1CCC[C@H]1C(=O)N[C@@H](CCC(=O)O)C(=O)N[C@@H](CCC(N)=O)C(=O)N[C@@H](Cc1cnc[nH]1)C(=O)N[C@@H](CO)C(=O)N[C@@H](CO)C(N)=O` [SGIQPEQHSS], the MIC in assay [2], in assay [1] and in assay [3] was greater than 100 µM each time.

As to `CC[C@H](C)[C@H](NC(=O)[C@H](CCCCN)NC(=O)[C@H](CC(C)C)NC(=O)[C@H](CC(C)C)NC(=O)[C@@H]1CCCN1C(=O)CNC(=O)[C@H](CC(C)C)NC(=O)[C@H](CCCCN)NC(=O)CN)C(=O)N[C@@H](C)C(=O)N[C@@H](C)C(=O)N[C@@H](CCCCN)C(=O)N[C@H](C(=O)NCC(=O)N[C@@H](CO)C(=O)N[C@@H](CC(N)=O)C(=O)N[C@@H](CC(C)C)C(=O)N[C@@H](CC(C)C)C(N)=O)C(C)C` [GKLGPLLKIAAKVGSNLL], in assay [1], the MIC came to 12.5 µM (≈ 22.4 µg/mL).

Compound `CC(C)C[C@H](NC(=O)[C@@H](N)C(C)C)C(=O)N[C@H](C(=O)N1CCC[C@H]1C(=O)N[C@@H](CCC(N)=O)C(=O)NCC(=O)N[C@@H](Cc1ccccc1)C(=O)N[C@@H](C)C(=O)N[C@H](C(=O)N[C@H](C(=O)N[C@@H](CCCCN)C(=O)N[C@@H](CCCCN)C(=O)N[C@@H](C)C(=O)N[C@@H](CC(N)=O)C(=O)N[C@@H](Cc1ccccc1)C(=O)N[C@H](C(=O)N[C@@H](C)C(=O)N[C@@H](Cc1ccccc1)C(=O)N[C@@H](Cc1ccc(O)cc1)C(=O)N[C@H](C(=O)O)[C@@H](C)O)C(C)C)C(C)C)C(C)C)C(C)C` [VLVPQGFAVVKKANFVAFYT] gave an MIC in assay [1] of 233 µM (≈ 512 µg/mL).

`CC(C)[C@H](NC(=O)[C@H](CC(N)=O)NC(=O)[C@H](CCCCN)NC(=O)[C@H](CCCN=C(N)N)NC(=O)[C@@H]1CCCN1C(=O)[C@H](C)N)C(=O)N[C@@H](CCCN=C(N)N)C(=O)N[C@@H](Cc1c[nH]c2ccccc12)C(=O)O` [APRKNVRW]: the MIC in assay [1] was 62.4 µM (≈ 64 µg/mL).

For `CSCC[C@H](NC(=O)[C@H](CCCN=C(N)N)NC(=O)[C@H](Cc1c[nH]c2ccccc12)NC(=O)[C@H](CCC(N)=O)NC(=O)[C@H](Cc1c[nH]c2ccccc12)NC(=O)[C@H](CCCN=C(N)N)NC(=O)[C@H](CCCN=C(N)N)NC(=O)[C@H](CS)NC(=O)[C@H](CCCCN)NC(=O)[C@@H](N)Cc1ccccc1)C(=O)N[C@@H](CCCCN)C(=O)O` [FKCRRWQWRMK], the MIC in assay [1] and in assay [3] was 30.8 µM (≈ 50 µg/mL) each time.

In turn, `CC(C)C[C@H](NC(=O)[C@H](CC(N)=O)NC(=O)[C@H](CCCCN)NC(=O)[C@H](CCCN=C(N)N)NC(=O)[C@@H]1CCCN1C(=O)[C@H](C)N)C(=O)N[C@@H](CCCCN)C(=O)N[C@@H](Cc1c[nH]c2ccccc12)C(=O)O` [APRKNLKW] displayed an MIC in assay [1] of 31.6 µM (≈ 32 µg/mL).

`CC[C@H](C)[C@H](NC(=O)[C@H](CCCN=C(N)N)NC(=O)[C@H](CCCCN)NC(=O)[C@H](CC(C)C)NC(=O)[C@H](CC(C)C)NC(=O)[C@@H](N)CCCCN)C(=O)N[C@@H](CCCCN)C(=O)N[C@H](C(=O)N[C@@H](CC(C)C)C(=O)N[C@@H](CC(C)C)C(N)=O)[C@@H](C)O` [KLLKRIKTLL]: the values for the MIC in assay [1] and in assay [3] were 19.6 µM (≈ 24 µg/mL) and greater than 19.6 µM, respectively.

In the case of `CC(C)C[C@H](NC(=O)[C@@H](NC(=O)[C@H](CCCCN)NC(=O)[C@H](CCCCN)NC(=O)[C@@H](NC(=O)[C@H](CCCN=C(N)N)NC(=O)[C@H](CCCCN)NC(=O)[C@@H](NC(=O)[C@@H](N)CC(C)C)C(C)C)C(C)C)C(C)C)C(=O)O` [LVKRVKKVL], the MIC in assay [2] came to 64 µM (≈ 69.3 µg/mL).

Consider `CC[C@H](C)[C@H](NC(=O)[C@H](CCCN=C(N)N)NC(=O)[C@H](CCCCN)NC(=O)[C@H](CC(C)C)NC(=O)[C@H](CC(C)C)NC(=O)CN)C(=O)N[C@@H](CCCCN)C(=O)N[C@H](C(=O)N[C@@H](CC(C)C)C(N)=O)[C@@H](C)O` [GLLKRIKTL], for which the MIC in assay [1] and in assay [3] was greater than 41.3 µM throughout.

Turning to `CC[C@H](C)[C@H](NC(=O)[C@H](CCCN=C(N)N)NC(=O)[C@H](CCCCN)NC(=O)[C@H](CC(C)C)NC(=O)[C@@H](N)CC(C)C)C(=O)N[C@@H](CCCCN)C(=O)N[C@H](C(=O)N[C@@H](CC(C)C)C(=O)N[C@@H](CC(C)C)C(N)=O)[C@@H](C)O` [LLKRIKTLL], the values for the MIC in assay [1] and in assay [3] were 54.7 µM (≈ 59.9 µg/mL) and greater than 54.7 µM, respectively.

Turning to `CC(C)[C@H](NC(=O)[C@H](Cc1ccc(O)cc1)NC(=O)[C@H](CO)NC(=O)[C@H](CCCCN)NC(=O)[C@@H](N)Cc1c[nH]c2ccccc12)C(=O)N[C@@H](CCCN=C(N)N)C(=O)N[C@@H](CCCN=C(N)N)C(=O)N[C@@H](Cc1c[nH]c2ccccc12)C(=O)N[C@@H](CCCN=C(N)N)C(=O)N[C@@H](CO)C(=O)N[C@@H](CCCN=C(N)N)C(N)=O` [WKSYVRRWRSR], the MIC in assay [2] is greater than 100 µM; in assay [1] it was 16 µM (≈ 25.3 µg/mL); in assay [3] it was 32 µM (≈ 50.5 µg/mL).
